In ChEMBL document CHEMBL1201862, “PubChem BioAssay data set” (2004):
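Growth conditions: 96-well plates. Treatment: test compound, 48 hours, 5 concentrations. Analysis: linear interpolation between bracketing concentrations; unreached endpoints set to highest concentration. Here, GI50 denotes the concentration required for 50% inhibition of growth.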 Activity calls are given as the source filed them. Rule as the data show it: active = GI50 up to about 1.1 µM and inactive = higher.

Columns and labels:
Experiment in all cases: inhibition of tumour cell growth, NCI panel, 48 h
CCRF-CEM = system: CCRF-CEM
HCT-15 = system: HCT-15
EKVX = system: EKVX
HCC 2998 = system: HCC 2998
IGROV-1 = system: IGROV-1
UACC-62 = system: UACC-62
NCI-H226 = system: NCI-H226
MOLT-4 = system: MOLT-4
SK-MEL-28 = system: SK-MEL-28
RPMI-8226 = system: RPMI-8226
K562 = system: K562
786-0 = system: 786-0
SK-MEL-5 = system: SK-MEL-5
SNB-19 = system: SNB-19
NCI-H23 = system: NCI-H23
U-251 = system: U-251
NCI-H522 = system: NCI-H522

| Structure (SMILES) | GI50 (CCRF-CEM) | GI50 (HCT-15) [µM] | GI50 (EKVX) | GI50 (HCC 2998) | GI50 (IGROV-1) | GI50 (UACC-62) | GI50 (NCI-H226) | GI50 (MOLT-4) | GI50 (SK-MEL-28) | GI50 (RPMI-8226) | GI50 (K562) | GI50 (786-0) | GI50 (SK-MEL-5) | GI50 (SNB-19) | GI50 (NCI-H23) | GI50 (U-251) | GI50 (NCI-H522) |
| --- | --- | --- | --- | --- | --- | --- | --- | --- | --- | --- | --- | --- | --- | --- | --- | --- | --- |
| c1ccc2c(c1)[nH]c1c[nH]c3c4cccnc4nc-3c12 | 24.7 µM (inactive) | 15.3 | 19.9 µM (inactive) | 19 µM (inactive) | 18.1 µM (inactive) | 15.1 µM (inactive) | 25.2 µM (inactive) | 24.4 µM (inactive) | 21.2 µM (inactive) | 25.3 µM (inactive) | 21.5 µM (inactive) | 17.1 µM (inactive) | 19.4 µM (inactive) | 18.3 µM (inactive) | 25.5 µM (inactive) | – | – |
| COC(=O)C1=C(C(=O)OC)C2(c3ccccc3)OC1(c1ccccc1)c1cc3ccccc3cc12 | 0.451 µM (active) | 1.82 | 1.8 µM (inactive) | 1.95 µM (inactive) | 1.9 µM (inactive) | 1.85 µM (inactive) | – | 0.733 µM (active) | 1.87 µM (inactive) | 0.764 µM (active) | 1.51 µM (inactive) | 1.4 µM (inactive) | 2.21 µM (inactive) | 4.2 µM (inactive) | 1.92 µM (inactive) | 6.43 µM (inactive) | 1.23 µM (inactive) |
| CC(C)N(CCn1c2c3ccccc3ccc2c2oc(=O)c3ccccc3c21)C(C)C | > 100 µM (inactive) | > 100 | > 100 µM (inactive) | – | > 100 µM (inactive) | > 100 µM (inactive) | > 100 µM (inactive) | > 100 µM (inactive) | > 100 µM (inactive) | > 100 µM (inactive) | > 100 µM (inactive) | 50.4 µM (inactive) | – | 65.8 µM (inactive) | > 100 µM (inactive) | > 86.9 µM (inactive) | > 100 µM (inactive) |
| Cc1ccc(/C=C2\CCCCC2=O)cc1 | 28.1 µM (inactive) | > 100 | > 100 µM (inactive) | – | > 100 µM (inactive) | > 100 µM (inactive) | – | 15.8 µM (inactive) | > 100 µM (inactive) | – | 25.7 µM (inactive) | > 100 µM (inactive) | 91.6 µM (inactive) | – | > 100 µM (inactive) | > 100 µM (inactive) | – |
| COc1cc(Cl)c2c3c(c(C(=O)c4ccccc4)oc13)CCC2 | > 100 µM (inactive) | > 100 | > 100 µM (inactive) | > 100 µM (inactive) | > 100 µM (inactive) | > 100 µM (inactive) | – | > 100 µM (inactive) | > 100 µM (inactive) | > 100 µM (inactive) | 41.7 µM (inactive) | > 100 µM (inactive) | > 100 µM (inactive) | > 100 µM (inactive) | > 100 µM (inactive) | > 100 µM (inactive) | – |
| O=c1c2ccccc2c2nc3ccccc3nc2n1C1CCCCC1 | – | > 100 | > 100 µM (inactive) | > 100 µM (inactive) | > 100 µM (inactive) | > 100 µM (inactive) | > 100 µM (inactive) | > 100 µM (inactive) | > 100 µM (inactive) | > 100 µM (inactive) | > 100 µM (inactive) | > 100 µM (inactive) | > 100 µM (inactive) | > 100 µM (inactive) | > 100 µM (inactive) | > 100 µM (inactive) | > 100 µM (inactive) |
| CC1(C)c2ccccc2N2C(c3ccccc3)=NOC21C (configuration not stated) | > 100 µM (inactive) | > 100 | > 100 µM (inactive) | – | > 100 µM (inactive) | > 100 µM (inactive) | > 100 µM (inactive) | > 100 µM (inactive) | > 100 µM (inactive) | > 100 µM (inactive) | > 100 µM (inactive) | > 100 µM (inactive) | > 100 µM (inactive) | > 100 µM (inactive) | > 100 µM (inactive) | > 100 µM (inactive) | > 100 µM (inactive) |
| CN(CC1NCCCC1O)C12CC3CC(CC(C3)C1)C2 (configuration not stated) | > 100 µM (inactive) | > 100 | > 100 µM (inactive) | > 100 µM (inactive) | > 100 µM (inactive) | > 100 µM (inactive) | > 100 µM (inactive) | > 100 µM (inactive) | – | > 100 µM (inactive) | 70.8 µM (inactive) | > 100 µM (inactive) | – | > 100 µM (inactive) | > 100 µM (inactive) | > 100 µM (inactive) | > 100 µM (inactive) |
| NC(=S)N/N=C1\C(=O)N(CCc2ccccc2)C(=O)C1C(=O)NCCc1ccccc1 (configuration not stated) | – | > 100 | > 100 µM (inactive) | > 100 µM (inactive) | > 100 µM (inactive) | > 100 µM (inactive) | > 100 µM (inactive) | – | > 100 µM (inactive) | > 100 µM (inactive) | > 100 µM (inactive) | > 100 µM (inactive) | > 100 µM (inactive) | > 100 µM (inactive) | > 100 µM (inactive) | > 100 µM (inactive) | > 100 µM (inactive) |
| COC(=O)c1c(N)n[nH]c1N | > 100 µM (inactive) | – | > 100 µM (inactive) | > 100 µM (inactive) | > 100 µM (inactive) | 77.6 µM (inactive) | – | > 100 µM (inactive) | > 100 µM (inactive) | > 100 µM (inactive) | > 100 µM (inactive) | > 100 µM (inactive) | > 100 µM (inactive) | > 100 µM (inactive) | > 100 µM (inactive) | > 100 µM (inactive) | > 100 µM (inactive) |
| COC(=O)[C@H]1C=C[C@@H](C)n2c(=O)c3cc4ccccc4cc3c(=O)n21 | > 100 µM (inactive) | > 100 | > 100 µM (inactive) | > 100 µM (inactive) | > 100 µM (inactive) | – | > 100 µM (inactive) | > 100 µM (inactive) | > 100 µM (inactive) | > 100 µM (inactive) | > 100 µM (inactive) | > 100 µM (inactive) | > 100 µM (inactive) | > 100 µM (inactive) | > 100 µM (inactive) | > 100 µM (inactive) | > 100 µM (inactive) |
| c1ccc(C(c2ccccc2)c2ccccn2)cc1 | > 100 µM (inactive) | > 100 | > 100 µM (inactive) | > 100 µM (inactive) | > 100 µM (inactive) | > 100 µM (inactive) | > 100 µM (inactive) | – | > 100 µM (inactive) | 66.1 µM (inactive) | > 100 µM (inactive) | > 100 µM (inactive) | > 100 µM (inactive) | > 100 µM (inactive) | > 100 µM (inactive) | > 100 µM (inactive) | – |
| Cc1c2n(c(=O)[nH]c1=O)C1OC(CO)C(N=[N+]=[N-])C1O2 (configuration not stated) | > 100 µM (inactive) | > 100 | 55.3 µM (inactive) | – | > 100 µM (inactive) | > 100 µM (inactive) | > 100 µM (inactive) | > 100 µM (inactive) | > 100 µM (inactive) | > 100 µM (inactive) | 92.5 µM (inactive) | > 100 µM (inactive) | > 100 µM (inactive) | > 100 µM (inactive) | > 100 µM (inactive) | > 100 µM (inactive) | 90.6 µM (inactive) |
| CC(CCc1ccc2c(c1)c(N)c1ccc(N)cc1[n+]2[O-])CC(C)(C)C (configuration not stated) | 0.542 µM (active) | 4.26 | 1.67 µM (inactive) | 1.55 µM (inactive) | 1.49 µM (inactive) | 1.45 µM (inactive) | 1.85 µM (inactive) | 1.09 µM (active) | 2.06 µM (inactive) | 1.92 µM (inactive) | 0.621 µM (active) | 1.5 µM (inactive) | 1.65 µM (inactive) | – | 1.31 µM (inactive) | 1.38 µM (inactive) | – |
